Patent publication US9227971B2, “Pyrazolo[1,5-a]pyrimidine compounds as mTOR inhibitors” (Merck Sharp & Dohme Corp., priority 2010, dated 2016)

Columns and labels:
[1] = system: phosphorylated AKT Ser473 (pAKT S473), mTORC2 activity, PC3 cells; assay: mTOR target engagement assay, immunofluorescent cell-based, pAKT S473 readout (mTORC2 activity); details: Homo sapiens, PC-3, PC3 cells, compound treatment ninety minutes at 37° C.
In short: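 After blocking, cells were stained overnight at 4 °C with anti-pAKT S473 antibody, then a fluorescent secondary; inhibition was read as reduced fluorescence intensity.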

[2] = system: phosphorylated 4E-BP1 Thr37/46 (p4E-BP1 Thr37/46), mTORC1 activity, PC3 cells; assay: mTOR target engagement assay, immunofluorescent cell-based, p4E-BP1 Thr37/46 readout (mTORC1 activity); details: Homo sapiens, PC-3, PC3 cells, compound treatment ninety minutes at 37° C.; read-out: p4E-BP1 Thr37/46 IC50
In short: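 Seed PC3 cells overnight; treat with compound dilutions for ninety minutes at 37° C; fix with glyoxal and block; stain with anti-p4E-BP1 Thr37/46 overnight at 4° C, then fluorescent secondary; read fluorescence and fit IC50 against DMSO-only controls.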

## CC(=O)Nc1nc(C(=O)N2[C@@H]3CC[C@H]2C[C@H](c2nc4c(-c5ccc(-c6ccccc6)nc5)cnn4c(N)c2C(C)=O)C3)n[nH]1 [Compound 1.1.142, N-(3-((1R,3s,5S)-3-(6-acetyl-7-amino-3-(6-phenylpyridin-3-yl)pyrazolo[1,5-a]pyrimidin-5-yl)-8-azabicyclo[3.2.1]octane-8-carbonyl)-1H-1,2,4-triazol-5-yl)acetamide]
[1]
  IC50: 100 to 1000 nM
[2]
  IC50: 100 to 1000 nM

## CC(=O)c1c([C@@H]2C[C@H]3CC[C@@H](C2)N3C(=O)c2nnc[nH]2)nc2c(-c3cnn(-c4ccccc4)c3)cnn2c1N [Compound 1.1.143, 1-(5-((1R,3s,5S)-8-(4H-1,2,4-triazole-3-carbonyl)-8-azabicyclo[3.2.1]octan-3-yl)-7-amino-3-(1-phenyl-1H-pyrazol-4-yl)pyrazolo[1,5-a]pyrimidin-6-yl)ethanone]
[1]
  IC50: 1 to 100 nM
[2]
  IC50: 1 to 100 nM

## COc1ccc(-c2ccc(-c3cnn4c(N)c(C(C)=O)c([C@@H]5C[C@H]6CC[C@@H](C5)N6C(=O)c5nnc(N)[nH]5)nc34)cn2)cc1F [Compound 1.1.144, 1-(7-amino-5-((1R,3s,5S)-8-(5-amino-4H-1,2,4-triazole-3-carbonyl)-8-azabicyclo[3.2.1]octan-3-yl)-3-(6-(3-fluoro-4-methoxyphenyl)pyridin-3-yl)pyrazolo[1,5-a]pyrimidin-6-yl)ethanone]
[1]
  IC50: 1 to 100 nM
[2]
  IC50: 1 to 100 nM

## CC(=O)c1c([C@@H]2C[C@H]3CC[C@@H](C2)N3C(=O)c2nnc[nH]2)nc2c(-c3ccc(-c4ccccc4F)nc3)cnn2c1N [Compound 1.1.145, 1-(5-((1R,3s,5S)-8-(4H-1,2,4-triazole-3-carbonyl)-8-azabicyclo[3.2.1]octan-3-yl)-7-amino-3-(6-(2-fluorophenyl)pyridin-3-yl)pyrazolo[1,5-a]pyrimidin-6-yl)ethanone]
[1]
  IC50: 1 to 100 nM
[2]
  IC50: 1 to 100 nM

## CC(=O)c1c([C@@H]2C[C@H]3CC[C@@H](C2)N3C(=O)c2nnc[nH]2)nc2c(-c3ccc(-c4ccccn4)nc3)cnn2c1N [Compound 1.1.146, 1-(3-(2,2′-bipyridin-5-yl)-5-((1R,3s,5S)-8-(4H-1,2,4-triazole-3-carbonyl)-8-azabicyclo[3.2.1]octan-3-yl)-7-aminopyrazolo[1,5-a]pyrimidin-6-yl)ethanone]
[1]
  IC50: 1 to 100 nM
[2]
  IC50: 1 to 100 nM

## CC(=O)c1c([C@@H]2C[C@H]3CC[C@@H](C2)N3C(=O)c2nnc[nH]2)nc2c(-c3ccc(-c4c(F)cccc4F)nc3)cnn2c1N [Compound 1.1.147, 1-(5-((1R,3s,5S)-8-(4H-1,2,4-triazole-3-carbonyl)-8-azabicyclo[3.2.1]octan-3-yl)-7-amino-3-(6-(2,6-difluorophenyl)pyridin-3-yl)pyrazolo[1,5-a]pyrimidin-6-yl)ethanone]
[1]
  IC50: 1 to 100 nM
[2]
  IC50: 1 to 100 nM

## CC(=O)c1c([C@@H]2C[C@H]3CC[C@@H](C2)N3C(=O)c2nnc[nH]2)nc2c(-c3ccc(-c4ccc(F)cc4F)nc3)cnn2c1N [Compound 1.1.148, 1-(5-((1R,3s,5S)-8-(4H-1,2,4-triazole-3-carbonyl)-8-azabicyclo[3.2.1]octan-3-yl)-7-amino-3-(6-(2,4-difluorophenyl)pyridin-3-yl)pyrazolo[1,5-a]pyrimidin-6-yl)ethanone]
[1]
  IC50: 1 to 100 nM
[2]
  IC50: 1 to 100 nM

## CC(=O)c1c([C@@H]2C[C@H]3CC[C@@H](C2)N3C(=O)c2nnc[nH]2)nc2c(-c3ccc(-c4cnn(C)c4)nc3)cnn2c1N [Compound 1.1.149, 1-(5-((1R,3s,5S)-8-(4H-1,2,4-triazole-3-carbonyl)-8-azabicyclo[3.2.1]octan-3-yl)-7-amino-3-(6-(1-methyl-1H-pyrazol-4-yl)pyridin-3-yl)pyrazolo[1,5-a]pyrimidin-6-yl)ethanone]
[1]
  IC50: 1 to 100 nM
[2]
  IC50: 1 to 100 nM

## CC(=O)c1c([C@@H]2C[C@H]3CC[C@@H](C2)N3C(=O)c2nnc[nH]2)nc2c(-c3cnn(C)c3)cnn2c1N [Compound 1.1.151, 1-(5-((1R,3s,5S)-8-(4H-1,2,4-triazole-3-carbonyl)-8-azabicyclo[3.2.1]octan-3-yl)-7-amino-3-(1-methyl-1H-pyrazol-4-yl)pyrazolo[1,5-a]pyrimidin-6-yl)ethanone]
[1]
  IC50: 100 to 1000 nM
[2]
  IC50: 100 to 1000 nM

## CC(=O)c1c([C@@H]2C[C@H]3CC[C@@H](C2)N3C(=O)c2nnc[nH]2)nc2c(-c3cnn(CCO)c3)cnn2c1N [Compound 1.1.155, 1-(5-((1R,3s,5S)-8-(4H-1,2,4-triazole-3-carbonyl)-8-azabicyclo[3.2.1]octan-3-yl)-7-amino-3-(1-(2-hydroxyethyl)-1H-pyrazol-4-yl)pyrazolo[1,5-a]pyrimidin-6-yl)ethanone]
[1]
  IC50: 1000 to 10000 nM
[2]
  IC50: 1000 to 10000 nM

## CC(=O)c1c([C@@H]2C[C@H]3CC[C@@H](C2)N3C(=O)c2cc(N)n[nH]2)nc2c(-c3ccc(-c4ccc(F)cc4)nc3)cnn2c1N [Compound 1.1.156, 1-(7-amino-5-((1R,3s,5S)-8-(3-amino-1H-pyrazole-5-carbonyl)-8-azabicyclo[3.2.1]octan-3-yl)-3-(6-(4-fluorophenyl)pyridin-3-yl)pyrazolo[1,5-a]pyrimidin-6-yl)ethanone]
[1]
  IC50: 1 to 100 nM
[2]
  IC50: 1 to 100 nM

## CC(=O)c1c([C@@H]2C[C@H]3CC[C@@H](C2)N3C(=O)CO)nc2c(-c3ccc(-c4ccc(F)cc4)nc3)cnn2c1N [Compound 1.1.159, 1-((1R,3s,5S)-3-(6-acetyl-7-amino-3-(6-(4-fluorophenyl)pyridin-3-yl)pyrazolo[1,5-a]pyrimidin-5-yl)-8-azabicyclo[3.2.1]octan-8-yl)-2-hydroxyethanone]
[1]
  IC50: 100 to 1000 nM
[2]
  IC50: 100 to 1000 nM

## CC(=O)c1c([C@@H]2C[C@H]3CC[C@@H](C2)N3C(=O)c2nnc(C)[nH]2)nc2c(-c3ccc(-c4ccc(F)cc4)nc3)cnn2c1N [Compound 1.1.160, 1-(7-amino-3-(6-(4-fluorophenyl)pyridin-3-yl)-5-((1R,3s,5S)-8-(5-methyl-4H-1,2,4-triazole-3-carbonyl)-8-azabicyclo[3.2.1]octan-3-yl)pyrazolo[1,5-a]pyrimidin-6-yl)ethanone]
[1]
  IC50: 1 to 100 nM
[2]
  IC50: 100 to 1000 nM

## CC(=O)c1c([C@@H]2C[C@H]3CC[C@@H](C2)N3C(=O)c2nnc[nH]2)nc2c(-c3cnn(-c4ccccn4)c3)cnn2c1N [Compound 1.1.161, 1-(5-((1R,3s,5S)-8-(4H-1,2,4-triazole-3-carbonyl)-8-azabicyclo[3.2.1]octan-3-yl)-7-amino-3-(1-(pyridin-2-yl)-1H-pyrazol-4-yl)pyrazolo[1,5-a]pyrimidin-6-yl)ethanone]
[1]
  IC50: 100 to 1000 nM
[2]
  IC50: 100 to 1000 nM

## CC(=O)c1c([C@@H]2C[C@H]3CC[C@@H](C2)N3C(=O)CO)nc2c(-c3cnn(-c4ccccn4)c3)cnn2c1N [Compound 1.1.162, 1-((1R,3s,5S)-3-(6-acetyl-7-amino-3-(1-(pyridin-2-yl)-1H-pyrazol-4-yl)pyrazolo[1,5-a]pyrimidin-5-yl)-8-azabicyclo[3.2.1]octan-8-yl)-2-hydroxyethanone]
[1]
  IC50: 100 to 1000 nM
[2]
  IC50: 100 to 1000 nM

## CC(=O)c1c([C@@H]2C[C@H]3CC[C@@H](C2)N3C(=O)c2nnc[nH]2)nc2c(-c3ccc(-c4ccc(F)cc4)nc3)cnn2c1N [Compound 1.1.163, 1-(5-((1R,3s,5S)-8-(4H-1,2,4-triazole-3-carbonyl)-8-azabicyclo[3.2.1]octan-3-yl)-7-amino-3-(6-(4-fluorophenyl)pyridin-3-yl)pyrazolo[1,5-a]pyrimidin-6-yl)ethanone]
[1]
  IC50: 1 to 100 nM
[2]
  IC50: 100 to 1000 nM
